Reference: ChEMBL document CHEMBL3526100, “A refined cytochrome P540 IC₅₀ shift assay for reliably identifying CYP3A time-dependent inhibitors” (Drug Metab Dispos, 2011)

Experiments:
Assay type in all cases: ADME
Cytochrome P450 3A4 [1] = target: T1, Cytochrome P450 3A4 (Homo sapiens, UniProt P08684); assay: Time dependent inhibition of CYP3A4 in human liver microsomes assessed as conversion of testosterone to 6beta-hydroxytestosterone at 0.01 to 100 uM preincubated for 60 mins followed by testosterone treatment measured after 10 mins by LC-MS/MS analysis
T1 sequence (P08684 whole entry): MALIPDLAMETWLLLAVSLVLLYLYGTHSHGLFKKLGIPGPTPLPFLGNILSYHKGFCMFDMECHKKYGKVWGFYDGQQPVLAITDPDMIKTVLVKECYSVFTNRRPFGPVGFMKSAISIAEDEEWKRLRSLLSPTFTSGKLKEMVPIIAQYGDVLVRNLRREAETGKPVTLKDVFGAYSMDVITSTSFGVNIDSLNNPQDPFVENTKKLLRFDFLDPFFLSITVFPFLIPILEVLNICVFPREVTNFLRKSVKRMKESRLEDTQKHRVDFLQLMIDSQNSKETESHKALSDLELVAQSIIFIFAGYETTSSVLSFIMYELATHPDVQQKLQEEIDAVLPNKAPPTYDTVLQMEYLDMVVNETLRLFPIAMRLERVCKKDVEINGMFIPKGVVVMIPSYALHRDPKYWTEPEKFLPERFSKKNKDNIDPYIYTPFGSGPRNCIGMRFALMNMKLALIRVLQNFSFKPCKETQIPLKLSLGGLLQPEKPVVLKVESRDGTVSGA

Cytochrome P450 3A4 [2] = target: T1, Cytochrome P450 3A4; assay: Time dependent inhibition of CYP3A4 in human liver microsomes assessed as conversion of testosterone to 6beta-hydroxytestosterone at 0.01 to 100 uM preincubated for 60 mins followed by testosterone treatment measured after 10 mins by refined CYP450 IC50 shift assay
Cytochrome P450 3A4 [3] = target: T1, Cytochrome P450 3A4; assay: Time dependent inhibition of CYP3A4 in human liver microsomes assessed as conversion of testosterone to 6beta-hydroxytestosterone at 0.01 to 100 uM preincubated for 60 mins followed by testosterone treatment measured after 10 mins by refined CYP450 IC50 shift assay in presence of NADPH
Cytochrome P450 3A4 [4] = target: T1, Cytochrome P450 3A4; assay: Time dependent inhibition of CYP3A4 in human liver microsomes assessed as conversion of testosterone to 6beta-hydroxytestosterone at 0.01 to 100 uM preincubated for 60 mins followed by testosterone treatment measured after 10 mins by LC-MS/MS analysis in presence of NADPH

Measured: inhibition (INH)

CC[C@H]1OC(=O)[C@H](C)[C@@H](O[C@H]2C[C@@](C)(OC)[C@@H](O)[C@H](C)O2)[C@H](C)[C@@H](O[C@@H]2O[C@H](C)C[C@H](N(C)C)[C@H]2O)[C@](C)(O)C[C@@H](C)C(=O)[C@H](C)[C@@H](O)[C@]1(C)O [ERYTHROMYCIN]
Active: Cytochrome P450 3A4 [1] | Cytochrome P450 3A4 [2] | Cytochrome P450 3A4 [3] | Cytochrome P450 3A4 [4]

CC(C)=CCC/C(C)=C/COc1c2ccoc2cc2oc(=O)ccc12 [BERGAMOTTIN]
Active: Cytochrome P450 3A4 [1] | Cytochrome P450 3A4 [2] | Cytochrome P450 3A4 [3] | Cytochrome P450 3A4 [4]

C/C(=C\COc1c2ccoc2cc2oc(=O)ccc12)CCC(O)C(C)(C)O (stereo not given) [DIHYDROXYBERGAMOTTIN]
Active: Cytochrome P450 3A4 [1] | Cytochrome P450 3A4 [2] | Cytochrome P450 3A4 [3] | Cytochrome P450 3A4 [4]

CNCCC(Oc1ccc(C(F)(F)F)cc1)c1ccccc1 (stereo not given) [FLUOXETINE]
Active: Cytochrome P450 3A4 [1] | Cytochrome P450 3A4 [2] | Cytochrome P450 3A4 [3] | Cytochrome P450 3A4 [4]

O=C(c1ccc(OCCN2CCCCC2)cc1)c1c(-c2ccc(O)cc2)sc2cc(O)ccc12 [RALOXIFENE]
Active: Cytochrome P450 3A4 [1] | Cytochrome P450 3A4 [2] | Cytochrome P450 3A4 [3] | Cytochrome P450 3A4 [4]
